# Assay results as given in PubChem BioAssay (NCI).
#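 These data come from cells grown in 96-well plates and exposed to compound for 48 hours at five concentrations. GI50 = concentration required for 50% inhibition of growth. TGI is the concentration that stops growth completely.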
# System: COLO 205 colon
# Experiment: inhibition of tumour cell growth, NCI panel, 48 h
Structure (SMILES),GI50,TGI
Cc1cc2nc(-c3c(F)cccc3Cl)n(Cc3c(F)cccc3Cl)c2cc1C,11.6 µM,26.3 µM
CCOC(=O)c1c(C)n(Cc2ccccc2)c2c1cc1oc(=O)c(=O)n3cnc2c13,12.8 µM,30.6 µM
O=C1C=Cc2ncccc2C1=O,–,32.5 µM
C/C(CC(=O)Nc1cccc([N+](=O)[O-])c1)=N\NC(=O)CC#N,–,> 100 µM
[CH3][Sn]1([CH3])[O]CC(COc2cc(Cl)c(Cl)cc2Cl)[O]1 (configuration not stated),> 100 µM,> 100 µM
O=C(/C=C/c1ccccc1)CCC1C(=O)NC(=S)NC1=O,–,> 100 µM
CCc1cc(Cc2ccc(C)c(NC(=O)C(=O)C3C(=O)NC(=O)NC3=O)c2CC)cc(C)c1NC(=O)C(=O)C1C(=O)NC(=O)NC1=O,–,> 100 µM
CC(=O)OC(=O)O/C=C\CCl,–,> 100 µM
CC(=O)c1c2c(cc3c1CC1(C3)Cc3cc4c(c(C(=O)O)c3C1)CCC4)CCC2 (configuration not stated),–,68.1 µM
C/C(=N/O)c1ccc(Nc2cc(-n3ccnc3)c3ccccc3n2)cc1,11.8 µM,> 100 µM
Cc1ccc(/C=N/NS(=O)(=O)c2ccccc2)c(C)c1,–,> 100 µM
C#CCOCn1cnc2ncnc(N)c21,–,> 100 µM
Cc1noc(/N=C2\C=C(Nc3onc(C)c3C)C(=O)c3ccccc32)c1C,–,> 100 µM

# System: RXF 393 renal
# Experiment: inhibition of tumour cell growth, NCI panel, 48 h
Structure (SMILES),TGI,GI50
CC1=C(N2CC2)C(=O)c2ccccc2C1=O,2.64 µM,–
O=S1(=O)c2ccccc2N=C(c2ccccc2Cl)CC1c1ccc(F)cc1 (configuration not stated),20.1 µM,–
Oc1ccc(Cl)cc1/C=N\NC(=S)N/N=C/c1cc(Cl)ccc1O,6.83 µM,2.03 µM
O=c1[nH]cc(C(F)(C(F)(F)F)C(F)(F)F)c(=O)[nH]1,> 100 µM,–
CC(=O)[C-](C(C)=O)c1ccccc1.CC(=O)[C-](C(C)=O)c1ccccc1.CC(=O)[C-](C(C)=O)c1ccccc1.[Cl-].[Zr+4],98.3 µM,28.1 µM
O=Cc1ccc(N2CCN(c3ccc(C=O)cc3)CC2)cc1,> 100 µM,67.2 µM
CC(C)N1C(C)[C@@H](c2ccccc2)O[P@]1(=O)CC1=CCCCC1 (some centres not stated),> 100 µM,–
Cc1cc(Nc2nc(-c3ccncc3)nc3ccccc23)n[nH]1,9.29 µM,0.91 µM
COC(=O)C(=O)C(C(=O)C(=O)Nc1cc(Cl)c(Cl)cc1Cl)c1nc2ccc([N+](=O)[O-])cc2[nH]c1=O (configuration not stated),> 100 µM,–
COc1ccc(NC(=O)C2C(=O)N(c3ccc(OC)cc3)C(=O)/C2=N\NC(N)=O)cc1 (configuration not stated),56.7 µM,–
C/C(=N\NS(=O)(=O)c1ccc([N+](=O)[O-])cc1)c1ccc[n+]([O-])n1,2.67 µM,–
S=c1c2ccccc2c(=S)n2n1CC=CC2,> 100 µM,–
CC(C)(C)Sc1nnc(SC(C)(C)C)c2c(=O)[nH]nc(SC(C)(C)C)c12,14.2 µM,–
CCCCNC1=C(C(=O)OCC)/C(=N/NC(=O)c2ccccc2O)CO1,> 100 µM,–
Cc1ccc(-c2n[nH]c(=O)c3noc(-c4ccc(C)cc4)c23)cc1,2.08 µM,0.419 µM
COc1ccc(C)cc1C1CCC(=O)O1 (configuration not stated),> 100 µM,–

Structure (SMILES),TGI,GI50
O=C1CCC(=O)c2sccc2N1,> 100 µM,–
Cn1nc(-c2ccccc2)c(C(=O)/C=C/c2ccc(Cl)cc2)c(N2CCCC2)c1=O,8.52 µM,–
Cc1cc2nc(-c3c(F)cccc3Cl)n(Cc3c(F)cccc3Cl)c2cc1C,28.4 µM,11.8 µM
CCOC(=O)c1c(C)n(Cc2ccccc2)c2c1cc1oc(=O)c(=O)n3cnc2c13,> 50 µM,16 µM
O=C1C=Cc2ncccc2C1=O,35.9 µM,–
C/C(CC(=O)Nc1cccc([N+](=O)[O-])c1)=N\NC(=O)CC#N,> 100 µM,–
[CH3][Sn]1([CH3])[O]CC(COc2cc(Cl)c(Cl)cc2Cl)[O]1 (configuration not stated),> 100 µM,29.1 µM
O=C(/C=C/c1ccccc1)CCC1C(=O)NC(=S)NC1=O,> 100 µM,–
CCc1cc(Cc2ccc(C)c(NC(=O)C(=O)C3C(=O)NC(=O)NC3=O)c2CC)cc(C)c1NC(=O)C(=O)C1C(=O)NC(=O)NC1=O,> 100 µM,–
CC(=O)OC(=O)O/C=C\CCl,> 100 µM,–
O=C(Nc1nc2ccccc2s1)c1cc(-c2ccc(F)cc2)n2nc(-c3ccccc3)cc2n1,6.43 µM,2.53 µM
CC(=O)c1c2c(cc3c1CC1(C3)Cc3cc4c(c(C(=O)O)c3C1)CCC4)CCC2 (configuration not stated),> 100 µM,–
Cc1ccc(/C=N/NS(=O)(=O)c2ccccc2)c(C)c1,> 100 µM,–
C#CCOCn1cnc2ncnc(N)c21,> 100 µM,–
Cc1noc(/N=C2\C=C(Nc3onc(C)c3C)C(=O)c3ccccc32)c1C,> 100 µM,–

# System: SF-268 CNS
# Experiment: inhibition of tumour cell growth, NCI panel, 48 h
Structure (SMILES),GI50,TGI
CN1CCN(c2ccc3nc(-c4ccc(OCCCCN5CCN(CCCCN6C(=O)c7cccc8cccc(c78)C6=O)CC5)cc4)[nH]c3c2)CC1,> 100 µM,> 100 µM
CC1=C(N2CC2)C(=O)c2ccccc2C1=O,–,5.14 µM
O=S1(=O)c2ccccc2N=C(c2ccccc2Cl)CC1c1ccc(F)cc1 (configuration not stated),–,47.4 µM
CC1=CC(=O)NP(=O)(C23CC4CC(CC(C4)C2)C3)N1 (configuration not stated),–,> 100 µM
Oc1ccc(Cl)cc1/C=N\NC(=S)N/N=C/c1cc(Cl)ccc1O,1.72 µM,> 100 µM
O=c1[nH]cc(C(F)(C(F)(F)F)C(F)(F)F)c(=O)[nH]1,–,> 100 µM
COc1ccc2c(c1)c1c3n2CCNN=C3CCC1,–,> 100 µM
CC(=O)[C-](C(C)=O)c1ccccc1.CC(=O)[C-](C(C)=O)c1ccccc1.CC(=O)[C-](C(C)=O)c1ccccc1.[Cl-].[Zr+4],61.7 µM,> 100 µM
O=Cc1ccc(N2CCN(c3ccc(C=O)cc3)CC2)cc1,> 100 µM,> 100 µM
CC(C)N1C(C)[C@@H](c2ccccc2)O[P@]1(=O)CC1=CCCCC1 (some centres not stated),–,> 100 µM
Cc1cc(Nc2nc(-c3ccncc3)nc3ccccc23)n[nH]1,5.62 µM,> 100 µM
COC(=O)C(=O)C(C(=O)C(=O)Nc1cc(Cl)c(Cl)cc1Cl)c1nc2ccc([N+](=O)[O-])cc2[nH]c1=O (configuration not stated),–,> 100 µM
COc1ccc(NC(=O)C2C(=O)N(c3ccc(OC)cc3)C(=O)/C2=N\NC(N)=O)cc1 (configuration not stated),–,63.9 µM
C/C(=N\NS(=O)(=O)c1ccc([N+](=O)[O-])cc1)c1ccc[n+]([O-])n1,–,7.65 µM
S=c1c2ccccc2c(=S)n2n1CC=CC2,–,> 100 µM
CC(C)(C)Sc1nnc(SC(C)(C)C)c2c(=O)[nH]nc(SC(C)(C)C)c12,–,21.2 µM
CCCCNC1=C(C(=O)OCC)/C(=N/NC(=O)c2ccccc2O)CO1,–,> 100 µM
N#CC(C(=O)CCCC(=O)Nc1ccc(Cl)cc1Cl)c1ccc(Cl)cc1 (configuration not stated),–,> 100 µM
Cc1ccc(-c2n[nH]c(=O)c3noc(-c4ccc(C)cc4)c23)cc1,2.21 µM,27.7 µM

Structure (SMILES),GI50,TGI
O=CCCCC(Sc1ccccc1)Sc1ccccc1,–,43.3 µM
Nc1ccn(C2OC(C(OC3OC(CO)C(O)C(N)C3O)C(O)C(O)C(O)C(O)CO)C(N)C(O)C2O)c(=O)n1 (configuration not stated),–,68.6 µM
Cc1ccc2nc(NC(=O)C(=O)CC(=O)c3cccc4ccccc34)sc2c1,–,> 100 µM
Nc1c(C(=O)Nc2cccc3ccccc23)sc2nc3c(cc12)C(=O)CCC3,0.587 µM,> 65.6 µM
O=C1CCC(=O)c2sccc2N1,–,> 100 µM
CCCCCCCCCCCCCCCCCC(=O)NCC(COP(=O)(O)O)OCC (configuration not stated),–,61.2 µM
Cn1nc(-c2ccccc2)c(C(=O)/C=C/c2ccc(Cl)cc2)c(N2CCCC2)c1=O,–,20.2 µM
Cc1cc2nc(-c3c(F)cccc3Cl)n(Cc3c(F)cccc3Cl)c2cc1C,11 µM,31.7 µM
CCOC(=O)c1c(C)n(Cc2ccccc2)c2c1cc1oc(=O)c(=O)n3cnc2c13,15.3 µM,> 50 µM
O=C1C=Cc2ncccc2C1=O,–,> 59.2 µM
C/C(CC(=O)Nc1cccc([N+](=O)[O-])c1)=N\NC(=O)CC#N,–,> 100 µM
[CH3][Sn]1([CH3])[O]CC(COc2cc(Cl)c(Cl)cc2Cl)[O]1 (configuration not stated),74.9 µM,> 100 µM
O=C(/C=C/c1ccccc1)CCC1C(=O)NC(=S)NC1=O,–,> 100 µM
CCc1cc(Cc2ccc(C)c(NC(=O)C(=O)C3C(=O)NC(=O)NC3=O)c2CC)cc(C)c1NC(=O)C(=O)C1C(=O)NC(=O)NC1=O,–,> 100 µM
CC(=O)OC(=O)O/C=C\CCl,–,> 100 µM
O=C(Nc1nc2ccccc2s1)c1cc(-c2ccc(F)cc2)n2nc(-c3ccccc3)cc2n1,3.89 µM,> 100 µM
CC(=O)c1c2c(cc3c1CC1(C3)Cc3cc4c(c(C(=O)O)c3C1)CCC4)CCC2 (configuration not stated),–,> 100 µM
C/C(=N/O)c1ccc(Nc2cc(-n3ccnc3)c3ccccc3n2)cc1,> 100 µM,> 100 µM
Cc1ccc(/C=N/NS(=O)(=O)c2ccccc2)c(C)c1,–,> 100 µM
